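Grown in 96-well plates, cells were treated for 48 hours with each compound at five concentrations. Insufficient inhibition: endpoint recorded as highest concentration tested. Abbreviation: GI50, concentration required for 50% inhibition of growth.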 The source made the active and inactive calls. Rule as the data show it: active = GI50 up to about 1.1 µM and inactive = higher.

Common to all, as to assay: NCI-60 cell line screen, 48 h
The test system of assay [1] is HL-60.
In assay [2] the test system is NCI-H522.
Assay [3] deals with HOP-62.
Assay [4] has as its system SNB-75.
In assay [5] the test system is UO-31.
Assay [6] has as its system M19-MEL.
The test system of assay [7] is A549.
In assay [8] the test system is ACHN.
Assay [9] deals with COLO 205.
The test system of assay [10] is NCI-H460.
The subject of assay [11] is HOP-92.
The subject of assay [12] is SF-539.
For assay [13], the system named is OVCAR-8.
The subject of assay [14] is HCT-116.
In assay [15] the test system is OVCAR-4.
The test system of assay [16] is NCI-H226.
Assay [17] deals with RPMI-8226.
For assay [18], the system named is SR.
Assay [19] deals with T47D.
Assay [20] has as its system Hs-578T.

Regarding `N#C/C(=C\c1ccc(O)c(O)c1)c1c(C#N)c(N)nn1-c1ccccc1`, the GI50 was 7.85 µM (inactive) in assay [1]; 3.32 µM (inactive) in [2]; 10 µM (inactive) in assay [3]; 13.3 µM (inactive) in assay [4]; 6.47 µM (inactive) in [5]; 7.4 µM (inactive) in assay [6]. Besides, the GI50 was 10.1 µM (inactive) in assay [7]; 8 µM (inactive) in assay [8]; 24.1 µM (inactive) in [9]; 10.8 µM (inactive) in assay [10]; 8.71 µM (inactive) in assay [11]; 6.64 µM (inactive) in assay [12]. The GI50 in assay [13] is 5.82 µM (inactive); in assay [14] it was 5.48 µM (inactive); in assay [15] it was 17.2 µM (inactive).
`Cc1ccc(S(=O)(=O)OCC23CCC(C2)C2CC23)cc1` (configuration not stated): the GI50 in assay [1] was 31.6 µM (inactive); in assay [16], > 100 µM (inactive); in [17], 90.4 µM (inactive); in assay [3], > 100 µM (inactive); in assay [5], > 100 µM (inactive); in assay [6], > 100 µM (inactive). Also, the GI50 is > 100 µM (inactive) in [7]; > 100 µM (inactive) in assay [8]; > 100 µM (inactive) in [18]; > 100 µM (inactive) in [9]; > 100 µM (inactive) in [10]; 26 µM (inactive) in [11]. Further, the GI50 in assay [13], in assay [14] and in assay [15] was > 100 µM (inactive) throughout.
On to `CC(=O)O/N=C/c1ncccc1CO`, for which the GI50 in assay [1], in assay [2], in assay [16], in assay [3], in assay [4] and in [5] was > 100 µM (inactive) throughout. The GI50 in assay [6], in assay [7], in assay [8], in assay [18], in [9] and in assay [10] was > 100 µM (inactive) throughout. Further, the GI50 in [11], in [12], in [13], in assay [14] and in assay [15] was > 100 µM (inactive) in each case.
Turning to `CC12O[C@H](c3ccccc3)[C@H](c3ccccc3)N1C(=O)C1(C(=O)OCc3ccccc3)CC12` (some centres not stated), the GI50 in assay [1] was 32.4 µM (inactive); in assay [2], 39.1 µM (inactive); in assay [16] it was 36 µM (inactive); in [3] it was > 100 µM (inactive); in assay [4], > 100 µM (inactive); in assay [5], 41.2 µM (inactive). For the same compound, the GI50 is > 100 µM (inactive) in [6]; 22.3 µM (inactive) in assay [7]; 60.3 µM (inactive) in assay [8]; 89.9 µM (inactive) in assay [9]; > 100 µM (inactive) in [10]; 23.5 µM (inactive) in assay [11]. Also, the GI50 was 92.3 µM (inactive) in [13], 98.2 µM (inactive) in assay [14] and 79.1 µM (inactive) in assay [15].
`CN(C)C(=O)c1ccc([N+](=O)[O-])cc1`: the GI50 in [1], in assay [2], in assay [16], in [3], in assay [4] and in [5] was > 100 µM (inactive) throughout. The GI50 in assay [6], in assay [7], in assay [8], in [18], in assay [9] and in [10] was > 100 µM (inactive) throughout. For the same compound, the GI50 in assay [11], in [12], in [13], in assay [14] and in [15] was > 100 µM (inactive) throughout.
Consider `Clc1ccc(/C(=C/c2ccccc2)Cn2ccnc2)cc1`, for which the GI50 was 14.3 µM (inactive) in assay [1]; 11.9 µM (inactive) in [2]; 12.9 µM (inactive) in assay [16]; 18.2 µM (inactive) in [17]; 89.1 µM (inactive) in assay [3]; 18.6 µM (inactive) in assay [4]. Moreover, the GI50 is 3.39 µM (inactive) in [5]; 12 µM (inactive) in [19]; 24.8 µM (inactive) in [7]; 16.6 µM (inactive) in assay [8]; 19.8 µM (inactive) in assay [18]; 18.6 µM (inactive) in assay [9]. The GI50 is 26.9 µM (inactive) in assay [10]; 12.7 µM (inactive) in assay [11]; 24 µM (inactive) in assay [12]; 44.5 µM (inactive) in assay [20]; 26.9 µM (inactive) in assay [13]; 9.08 µM (inactive) in assay [14]. The GI50 in assay [15] was 22.6 µM (inactive).
As for `COc1cc2nc(NCCCCCNC(=O)c3ccco3)nc(N)c2cc1OC`, the GI50 in assay [1] was 21.4 µM (inactive); in assay [2], 25.4 µM (inactive); in assay [16], 32.7 µM (inactive); in assay [17], 38 µM (inactive); in assay [3] it was 24.2 µM (inactive); in [4], 22.6 µM (inactive). In addition, the GI50 is > 100 µM (inactive) in assay [5]; 23 µM (inactive) in assay [6]; 74.8 µM (inactive) in [7]; 52.5 µM (inactive) in [8]; 18.2 µM (inactive) in assay [9]; 32 µM (inactive) in assay [10]. Also, the GI50 in assay [11] is 12.2 µM (inactive); in assay [12], 19.6 µM (inactive); in [13], 33.7 µM (inactive); in [15], 29.3 µM (inactive).
As for `COc1ccc(C[C@H]2NC[C@H](OC(C)=O)[C@H]2OC(C)=O)cc1`, the GI50 in assay [1] was 0.1 µM (active); in [2], 0.0525 µM (active); in [16] it was 0.172 µM (active); in assay [17] it was 0.275 µM (active); in assay [3], 0.195 µM (active); in assay [4], 0.0721 µM (active). Moreover, the GI50 is 0.0583 µM (active) in [5]; 0.112 µM (active) in assay [19]; 0.151 µM (active) in [7]; 0.106 µM (active) in [8]; 0.177 µM (active) in assay [18]; 0.147 µM (active) in assay [9]. Also, the GI50 is 0.172 µM (active) in assay [10]; 0.0417 µM (active) in assay [11]; 0.441 µM (active) in [12]; 0.135 µM (active) in assay [20]; 0.191 µM (active) in assay [13]; 0.105 µM (active) in [14]. Moreover, the GI50 in assay [15] is 0.104 µM (active).
In the case of `Cc1cc(S(N)(=O)=O)c(SCc2nc(N)nc(N(C)C)n2)cc1Cl`, the GI50 in assay [1], in assay [2], in [16], in assay [17], in [3] and in [4] was > 10 µM (inactive) in each case. For the same compound, the GI50 in assay [5], in [19], in assay [7], in assay [8], in assay [18] and in assay [9] was > 10 µM (inactive) in each case. In addition, the GI50 in assay [10], in assay [11], in assay [12], in [20], in assay [13] and in assay [14] was > 10 µM (inactive) in each case. Further, the GI50 in assay [15] was > 10 µM (inactive).
For `COc1cc(C(C)O)c[n+](CCC2CNc3ccccc32)c1` (configuration not stated), the GI50 is > 100 µM (inactive) in [1]; > 100 µM (inactive) in assay [2]; 73.1 µM (inactive) in assay [16]; > 100 µM (inactive) in [17]; > 100 µM (inactive) in assay [3]; > 100 µM (inactive) in [4]. Moreover, the GI50 is > 100 µM (inactive) in assay [5]; > 100 µM (inactive) in [6]; > 100 µM (inactive) in [7]; > 100 µM (inactive) in assay [8]; > 100 µM (inactive) in [18]; 43.3 µM (inactive) in assay [9]. The GI50 in assay [10], in assay [12], in assay [13], in assay [14] and in [15] was > 100 µM (inactive) each time.
`CCCOc1ccc(/C=C/C2=[N+](CCO)CCO2)cc1`: the GI50 in [1], in assay [2], in assay [16], in assay [17], in assay [3] and in assay [4] was > 100 µM (inactive) in each case. In addition, the GI50 in assay [5], in assay [19], in [7], in [8], in [18] and in assay [9] was > 100 µM (inactive) in each case. The GI50 in assay [10], in [11], in assay [12], in assay [20], in assay [13] and in [14] was > 100 µM (inactive) throughout. Further, the GI50 in assay [15] was > 100 µM (inactive).
Turning to `Nc1ccc2c(=S)c3ccccc3[nH]c2c1`, the GI50 in [1] is 16.2 µM (inactive); in assay [2], 46.8 µM (inactive); in assay [16], 24.1 µM (inactive); in assay [17], 13.8 µM (inactive); in assay [3] it was 24.3 µM (inactive); in [4], 18.7 µM (inactive). For the same compound, the GI50 in assay [5] is 27.9 µM (inactive); in assay [19], 20.1 µM (inactive); in [7], 23.3 µM (inactive); in assay [8], 38.1 µM (inactive); in assay [18], 25.1 µM (inactive); in [9] it was 24.5 µM (inactive). Besides, the GI50 was 27.4 µM (inactive) in [10]; 26.2 µM (inactive) in assay [11]; 33.2 µM (inactive) in [12]; 55.6 µM (inactive) in [20]; 52.5 µM (inactive) in [13]; 24.3 µM (inactive) in assay [14]. The GI50 in [15] was 62.8 µM (inactive).
